Source: patent US5736523A, “Antineoplastic heteronapthoquinones” (Biochem Pharma Inc., priority 1995, dated 1998)
Structures can show the parent of a compound that is named as a salt.

Tested on: SKVLB (Ovarian; multidrug resistant)
Assay: In vitro cytotoxicity, microculture tetrazolium (MTT) assay, SKVLB
Type: cell-based, human
Settings: SKVLB cell line
Method: In Vitro Cytotoxicity--Microculture Tetrazolium Assay
The microculture tetrazolium assay was used to test in vitro cytotoxicity. This assay is described in Plumb, J. A. et al., 1989 Cancer Research 49, 4435-4440, which is herein incorporated by reference. The cytotoxicity of compounds towards tumor cells is measured in vitro using the assay. This assay method is based upon the ability of live, but not dead cells to reduce the yellow water soluble dye 3-(4;5-dimethylthiazol-2-yl)-2,5-diphenyltetrazolium bromide (MTT) to its water insoluble purple formazan product.
Human Tumor Cell lines, used were:
SKVLB (Ovarian; multidrug resistant)--Dr. V. Ling, Ontario
The cells were maintained in exponential growth in culture in minimal essential media (MEM) supplemented with non-essential amino acids, and containing 15% (v/v) fetal bovine serum, 5 mM L-glutamine, 1 mM sodium pyruvate, and 0.1 U/ml insulin. All cell lines were grown at 37° C. in an atmosphere of 5% CO2 in air.
Test compounds: 20 mM in DMSO and diluted to a final concentration of 200 μM in culture medium before use.
The following is the generic description of the assay method. It should be noted that although the conditions described work well with the cells listed above, the initial plating density and the MTT concentration used should be verified for each new cell line used to test compounds.
For each assay, doxorubicin is included as an inter-assay standard. This allows us to monitor the behaviour of the assay in general, and in particular, to check that the SKVLB line has maintained its resistant phenotype.
The plate layout is done in the following manner: The assays are carried out in 96-well (8 well×12 well) microtiter plates. Serial dilutions of the compound are tested along the length of the plate. A 1:3 serial dilution of compound in culture medium covers a concentration range from 100 μM to 1.7 nM. Each concentration of compound is tested in quadruplet, allowing two compounds to be tested per plate. Wells containing no cells (blank) and cells with no test compound (control) are included on each plate.
Cells are plated out in 100 μl of culture medium in the microtiter plates at a density of around 1,500-4,000 cells per well. The plates are incubated overnight to allow the cells to become adherent after which the test compound is added (100 μl of appropriate dilution per well). The cells are incubated with test compound at 37° C. for 48 h after which the compound is replaced with fresh medium. After a further 48 h incubation at 37° C., 50 μl of MTT solution (2 mg/ml) is added to each well. The plates are incubated in the dark for 4 h at 37° C. after which the medium is removed. The MTT formazan product is extracted from the cells by the addition of 200 μl DMSO followed by 50 μl of Sorensen's buffer. The plates are shaken briefly and the absorbance at 570 nm is read using a Molecular Devices UV max plate reader. Curves are fit to the MTT assay data using a four parameter logistic equation, and the data are normalized to fit a 0% to 100% survival scale.

SMILES	multidrug resistance / effectiveness in multidrug resistant cell line
COC1OC(C(=O)NCCCN(C)C)=CC2=C1C(=O)c1ccccc1C2=O (stereo not drawn) [BCH2051, 1-Methoxy-5,10-dioxo-5,10-dihydro-1H-naphtho[2,3-c]pyran-3-[N-(3-dimethylamino-propyl)carboxamide] hydrochloride monohydrate]	significantly avoiding multidrug resistance

Same assay, conditions: in vitro

SMILES	in vitro antitumor potency
COC1OC(C(=O)NCCCN(C)C)=CC2=C1C(=O)c1ccccc1C2=O (stereo not drawn) [BCH2051, 1-Methoxy-5,10-dioxo-5,10-dihydro-1H-naphtho[2,3-c]pyran-3-[N-(3-dimethylamino-propyl)carboxamide] hydrochloride monohydrate]	intense in vitro antitumor potency

Same assay, conditions: ratio SKVLB / SKOV3

SMILES	VLB/OV3
COC(=O)[C@@H](N)COC1OC(C(C)=O)CC2=C1C(=O)c1ccccc1C2=O (mixture of isomers) [BCH1654, (1S,2'S,3R) and (1R,2'S,3S)-methyl-(1-[O-serinemethyl ester]-5,10-dioxo-3,4,5,10-tetrahydronaphtaleno [2,3-C]pyran-3-yl) ketone hydrochloride]	5.25
COC(=O)[C@H](CC(C)C)NC(=O)[C@H](CO[C@H]1O[C@H](C(C)=O)CC2=C1C(=O)c1ccccc1C2=O)NC(=O)OC(C)(C)C [BCH1998, (1S,2'S,3S,5'S)-Methyl-(1-O-[N-BOC-Serine-Leucine-Me ester]-5,10-dioxo-3,4,5,10-tetrahydro-1-H-naphtho [2,3-c]pyran-3-yl) ketone]	13.28
CC[C@H]1CC2=C(C(=O)c3ccccc3C2=O)[C@H](O[C@H]2C[C@H](NC(=O)C(F)(F)F)[C@H](O)[C@H](C)O2)O1 [BCH2020, (1'S,1S,3S)-5,10-dioxo-3-ethyl-1-(2',3',6'-trideoxy-3'-trifluoroacetamido-L-lyxohexopyranose)-3,4,5,10-tetrahydro-1H-naphtho-[2,3-c]-pyran]	2.31
Nc1nc(C2CC3=C(CO2)C(=O)c2ccccc2C3=O)cs1 (stereo not drawn) [BCH1189, 3-(3'-aminothiazolyl)-5,10-dioxo-1,3,4,5,10-pentahydronaphtho-[2,3-c]-pyran]	4.09
CC(=O)[C@@H]1CC2=C(C(=O)c3ccccc3C2=O)[C@@H](O[C@H]2C[C@H](NC(=O)C(F)(F)F)[C@H](I)[C@H](C)O2)O1 [BCH1620, (1'-S,1-R,3-S)-methyl-(1-[2',3',6'-trideoxy-3'-trifluoroacetamido-4'-iodo-L-lyxohexopyranose]-5,10-dioxo-3,4,5,10-tetrahydronaphtho-[2,3-c]-pyran-3-yl)-ketone]	51.31
CC(=O)[C@]1(C)CC2=C(C(=O)c3ccccc3C2=O)[C@H](O[C@H]2C[C@H](NC(=O)C(F)(F)F)[C@H](O)[C@H](C)O2)O1 [BCH2090, (1'S,1S,3S)-1-(3'-trifluoroacetamido-2',3',6'-trideoxy-L-lyxohexopyranose)-3-acetyl-3-methyl-5,10-dioxo-4,5,10-trihydro-1H-naphtho-[2,3-c]-pyran]	3.29
COC1OC(C(=O)Nc2ccccc2)=CC2=C1C(=O)c1ccccc1C2=O (stereo not drawn) [BCH2044, 1-methoxy-3-N-anilinylcarbonyl-5,10-dioxo-5,10-dihydro-1H-naphtho-[2,3-c]-pyran]	3.55
CC(=O)[C@@H]1CC2=C(C(=O)c3ccccc3C2=O)[C@@H](O[C@@H]2O[C@@H](C)[C@@H](O)[C@@H](O)[C@H]2I)O1 [BCH2015, (1'S,1R,3S)-methyl-(1-[2',6'-dideoxy-3',4'-dihydroxy-2'-iodo-L-lyxohexopyranose]-5,10-dioxo-3,4,5,10-tetrahydronaphtho [2,3-c]-pyran-3-yl) ketone]	3.19
COC1OC(C(=O)NCCN2CCOCC2)=CC2=C1C(=O)c1ccccc1C2=O (stereo not drawn) [BCH2170, 1-methoxy-3-[2-(N-morpholino)ethylaminocarbonyl]-5,10-dioxo-5,10-dihydro-1H-naphtho-[2,3-c]-pyran]	1.52
COC1OC(C(C)=O)=CC2=C1C(=O)c1ccccc1C2=O (stereo not drawn) [BCH2129, 3-Aceto-5,10-dioxo-1-methoxy-5,10-dihydro-1H-naphtho-(2,3-c)-pyran]	2.95
CC(=O)[C@H]1CC2=C(C(=O)c3ccc(O)cc3C2=O)[C@H](O[C@H]2C[C@H](NC(=O)C(F)(F)F)[C@H](O)[C@H](C)O2)O1 [BCH1180, (1'S,1S,3R)-Methyl (5,10-dioxo-1-(2',3',6'-trideoxy-3'-trifluoroacetamido-L-lyxohexopyranose)-7-hydroxy-3,4,5,10-tetrahydro [2,3-C]pyran-3-yl) ketone]	10.20
CC(=O)[C@H]1CC2=C(C(=O)c3ccccc3C2=O)[C@H](O[C@@H]2O[C@@H](C)[C@@H](O)[C@@H](O)[C@H]2I)O1 [BCH2014, (1'S,1S,3R)-methyl-(1-[2',6'-dideoxy-3',4'-dihydroxy-2'-iodo-L-lyxohexopyranose]-5,10-dioxo-3,4,5,10-tetrahydronaphtho [2,3-c]-pyran-3-yl)-ketone]	1.85
CC(=O)C1CC2=C(C(=O)c3ccccc3C2=O)C(OCC2CCCN(C(=O)OC(C)(C)C)C2)O1 (mixture of isomers) [BCH2060, Methyl-(1-O-[N-BOC-3-piperidinemethanol]-5,6-dioxo-3,4,5,10-tetrahydronaphthaleno-[2,3-c]pyran-3-yl) ketone, mixture of isomers]	2.19
COC(=O)C1=CC2=C(C(=O)c3ccccc3C2=O)C(OC)O1 (stereo not drawn) [BCH2160, 1-methoxy-3-methoxy carbonyl-5,10-dioxo-5,10-dihydro-1H-naphtho-[2,3-c]-pyran]	1.85
CC(=O)O[C@H]1[C@@H](I)[C@H](O[C@@H]2O[C@@H](C(C)=O)CC3=C2C(=O)c2ccccc2C3=O)O[C@@H](C)[C@H]1OC(C)=O [BCH1667, (1'S,1S,3R)-methyl-(1-[2',6'-dideoxy-3',4'-diacetoxy-2'-iodo-L-lyxohexopyranose]-5,10-dioxo-3,4,5,10-tetrahydronaphtho [2,3-c]-pyran-3-yl) ketone]	7.32
CC(=O)[C@@]1(C)CC2=C(C(=O)c3ccccc3C2=O)[C@H](O[C@H]2C[C@H](NC(=O)C(F)(F)F)[C@H](O)[C@H](C)O2)O1 [BCH2082, (1'S,1S,3R)-1-(3'-trifluoroacetamido-2',3',6-trideoxy-L-lyxohexopyranose)-3-acetyl-3-methyl-5,10-dioxo-4,5,10-trihydro-1H-naphtho-[2,3-c]-pyran]	3
CO[C@H]1C[C@H](O[C@H]2O[C@H](C(C)=O)C[C@]34O[C@]23C(=O)c2ccccc2C4=O)O[C@@H](C)[C@H]1OS(C)(=O)=O [BCH2141, (1'-S,1-R,3-S,4a-S,10a-S)-methyl-(1-[2',3',4',6'-tetradeoxy-3'-methoxy-4'-O-methanesulfonyl-L-lyxohexopyranose)-4a,10a-epoxy-5,10-dioxo-3,4,5,10-tetrahydronaphtho-[2,3-c]pyran-3-yl) ketone]	1.23
CC(=O)O[C@@H]1[C@H](C)O[C@@H](O[C@@H]2O[C@@H](C(C)=O)CC3=C2C(=O)c2ccccc2C3=O)C(Br)[C@@H]1OC(C)=O (stereo partly drawn) [BCH2099, (1'S,1S,3R)-methyl-(1-[2',6'-dideoxy-3',4'-diacetoxy-2'-bromo-L-lyxohexopyranose]-5,10-dioxo-3,4,5,10-tetrahydronaphtho-[2,3-c]-pyran-3-yl) ketone]	0.77-2
COC1OC(C(=O)NCCN2CCCC2)=CC2=C1C(=O)c1ccccc1C2=O.Cl (stereo not drawn) [BCH2839, 1-methoxy-3-[2-(N-pyrrolidinyl)ethylaminocarbonyl]-5,10-dioxo-5,10-dihydro-1H-naphtho-[2,3-c]-pyran hydrochloride salt]	6.14-9.98
CC(=O)C1CC2=C(C(=O)c3ccccc3C2=O)C(OCC2CCCCN2)O1 (racemic) [BCH2069, Methyl-(1-O-[2'-piperidinemethanol]-5,10-dioxo-3,4,5,10-tetrahydronaphthaleno-[2,3-c]pyran-3-yl) ketone, racemic, hydrochloride]	2-9.8
CO[C@H]1O[C@H](C(=O)O)CC2=C1C(=O)c1ccccc1C2=O (relative stereo) [BCH2045, (1,3-trans)-1-methoxy-3-carboxyl-5,10-dioxo-3,4,5,10-tetrahydro-1H-naphtho-[2,3-c]-pyran]	3
CC(=O)[C@@H]1CC2=C(C(=O)c3ccccc3C2=O)[C@@H](O[C@@H]2O[C@@H](C)[C@@H](O)[C@@H](NC(=O)C(F)(F)F)C2I)O1 (stereo partly drawn) [BCH2023, (1'S,1R,3S)-methyl-(1-[2',3',6'-trideoxy-2'-iodo-3'-trifluoroacetamido-4'-hydroxy-L-lyxohexopyranose]-5,10-dioxo-3,4,5,10-tetrahydronaphtho-[2,3-c]-pyran-3-yl) ketone]	4.39
